From patent US20110039762A1, “TARGETED ANTIMICROBIAL MOIETIES” (C3 JIAN, INC., priority 2009, published 2011)
“Also recorded” adds a separate entry of the source.

How the values were obtained:
[1] = system: microorganisms (e.g., bacteria, yeasts, fungi); experiment: Targeting peptide binding to target microorganisms (Table 3); conditions: preferably 1x PBS; for Target(s) (microorganisms bound by the targeting peptide): peptide binding in aqueous buffers varied by peptide solubility
[2] = system: microorganisms; experiment: Peptides having multiple activities (targeting/binding, antimicrobial, growth or phenotype altering)
Excerpt: In certain embodiments, peptides described herein can have multiple activities. Thus for example, a peptide can have both binding/targeting activity and antimicrobial activity. Such peptides can be used, e.g., in a chimeric construct, for any or all of these properties. Thus, for example, a peptide designated “B” in Table 8 can be used as a targeting peptide. If it is also designated G or M it can also be used for antimicrobial activity.

[3] = system: MRSA; experiment: Kill or inhibit growth/proliferation; morphology, biofilm and growth disruption (Tables 5, 6); format: cell-based, Methicillin-resistant Staphylococcus aureus; set-up: key: A: Peptide aggregates; B: Less hyphal formation; Clumps; Diffuse clumps and small polyps; F: Diffuse growth; H: Thin; I: Growth inhibition; Microcolony formation; Rippled; Small polyps; Thick; W: Halo formation on top, microlonies on bottom; also: test concentration or dose not given here
[4] = system: S. pneumoniae; experiment: as above; format: cell-based, Streptococcus pneumoniae; set-up: key: A: Peptide aggregates; B: Less hyphal formation; Clumps; Diffuse clumps and small polyps; F: Diffuse growth; H: Thin; I: Growth inhibition; Microcolony formation; Rippled; Small polyps; Thick; W: Halo formation on top, microlonies on bottom; also: test concentration or dose not given here
[5] = microorganism the targeting peptide binds, binding in aqueous buffers varied by peptide solubility
[6] = microorganism(s) the targeting peptide binds, binding in aqueous buffers depending on peptide solubility
[7] = microorganism(s) the targeting peptide binds, peptide binding conducted in aqueous buffers varied by peptide solubility

## PF-015: peptide having multiple activities (chain 1 SIDKRNLYNLKYYE; chain 2 SIDKRNLYNLKYYE; Peptide with targeting and/or antimicrobial activity)
[1]; [5]
  Target(s): E. faecalis; also recorded: C. jeikeium
[2]
  Activities: G B
[3]
  Organism, effect: MRSA (W)

## PF-017: peptide having multiple activities (chain 1 ESIIE; chain 2 ESIIE; Peptide with targeting and/or antimicrobial activity)
[1]; [5]
  Target(s): E. coli
[2]
  Activities: G B
[3]
  Organism, effect: MRSA (M)

## PF-019 (NDTNK; Peptide with targeting and/or antimicrobial activity)
[3]
  Organism, effect: MRSA (M)

## PF-026: peptide having multiple activities (chain 1 SIHFIN; chain 2 SIHFIN; Peptide with targeting and/or antimicrobial activity)
[1]; [5]
  Target(s): S. epidermidis and M. luteus and P. mirabilis and C. albicans and MRSA and E. faecalis and C. jeikeium
[2]
  Activities: G B
[3]
  Organism, effect: MRSA (M)

## PF-029: peptide having multiple activities (chain 1 NSTNE; chain 2 NSTNE; Peptide with targeting and/or antimicrobial activity)
[1]; [5]
  Target(s): S. epidermidis; also recorded: M. luteus; also recorded: C. albicans; also recorded: C. jejuni
[2]
  Activities: G B
[3]
  Organism, effect: MRSA (M)

## PF-031: peptide having multiple activities (chain 1 MPHHSTTSSRIVVPAHQSNMASTPNLSITP; chain 2 MPHHSTTSSRIVVPAHQSNMASTPNLSITP; Peptide with targeting and/or antimicrobial activity)
[1]; [5]
  Target(s): M. luteus; also recorded: C. albicans
[2]
  Activities: G B
[3]
  Organism, effect: MRSA (M)

## PF-035: peptide having multiple activities (chain 1 SFYESY; chain 2 SFYESY; Peptide with targeting and/or antimicrobial activity)
[1]; [5]
  Target(s): S. epidermidis and M. luteus and E. coli and C. albicans and MRSA and C. jeikeium and C. jejuni
[2]
  Activities: G B
[3]
  Organism, effect: MRSA (M)

## PF-045: peptide having multiple activities (chain 1 LDINDYRSTY; chain 2 LDINDYRSTY; Peptide with targeting and/or antimicrobial activity)
[1]; [5]
  Target(s): S. epidermidis; also recorded: E. coli; also recorded: E. faecalis; also recorded: C. jejuni
[2]
  Activities: G B
[3]
  Organism, effect: MRSA (S)

## PF-049: peptide having multiple activities (chain 1 AYYLKRREEKGK; chain 2 AYYLKRREEKGK; Peptide with targeting and/or antimicrobial activity)
[1]; [5]
  Target(s): S. epidermidis and MRSA and C. jeikeium and C. jejuni
[2]
  Activities: G B
[3]
  Organism, effect: MRSA (S)

## PF-058: peptide having multiple activities (chain 1 FADQSQDNA; chain 2 FADQSQDNA; Peptide with targeting and/or antimicrobial activity)
[1]; [5]
  Target(s): S. epidermidis and M. luteus and E. coli and C. albicans and MRSA and C. jeikeium and C. jejuni
[2]
  Activities: G B
[3]
  Organism, effect: MRSA (M)

## PF-149: peptide having multiple activities (GKVSVLTRVPRSLGGAPANQ; Peptide with targeting and/or antimicrobial activity)
[1]; [6]
  Target(s): S. epidermidis and M. luteus and E. coli and MRSA and C. jeikeium
[2]
  Activities: G B
[3]
  Organism, effect: MRSA (H)

## PF-156: peptide having multiple activities (LITAEQPATAPIAGK; Peptide with targeting and/or antimicrobial activity)
[1]; [6]
  Target(s): S. epidermidis; also recorded: C. jeikeium
[2]
  Activities: G B
[3]
  Organism, effect: MRSA (H)

## PF-354: peptide having multiple activities (chain 1 FTFSKCRASNGRGFGTLWL; chain 2 FTFSKCRASNGRGFGTLWL; Peptide with targeting and/or antimicrobial activity)
[2]
  Activities: G B
[3]
  Organism, effect: MRSA (H)

## PF-382: peptide having multiple activities (chain 1 KYKCSWCKRVYTLRKDHKTAR; chain 2 KYKCSWCKRVYTLRKDHKTAR; Peptide with targeting and/or antimicrobial activity)
[1]; [6]
  Target(s): S. epidermidis; also recorded: B. subtilis; also recorded: B. fragilis; also recorded: E. coli; also recorded: P. aeruginosa; also recorded: E. faecalis; also recorded: C. jeikeium; also recorded: C. jejuni
[2]
  Activities: G B
[3]
  Organism, effect: MRSA (M)

## PF-405: peptide having multiple activities (LVRIEVDDLEEWYERNFI; Peptide with targeting and/or antimicrobial activity)
[1]; [7]
  Target(s): S. epidermidis; also recorded: E. coli; also recorded: E. faecalis
[2]
  Activities: G B
[3]
  Organism, effect: MRSA (M)

## PF-551: peptide having multiple activities (chain 1 QVKEKRREIELQFRDAEKKLEASVQAE; chain 2 QVKEKRREIELQFRDAEKKLEASVQAE; Peptide with targeting and/or antimicrobial activity)
[1]; [7]
  Target(s): S. pneumoniae
[2]
  Activities: G B
[3]
  Organism, effect: MRSA (C)

## PF-626: peptide having multiple activities (KYDFDDFEPEEA; Peptide with targeting and/or antimicrobial activity)
[1]
  Target(s) (microorganisms bound by the targeting peptide): S. epidermidis and M. luteus and E. coli and C. albicans and MRSA and S. pneumoniae and E. faecalis and C. jeikeium
[4]
  Organism, effect: S. pneumoniae (H)
[2]
  Activities: G B

## PF-630: peptide having multiple activities (chain 1 IPATPIIHS; chain 2 IPATPIIHS; Peptide with targeting and/or antimicrobial activity)
[2]
  Activities: G B
[3]
  Organism, effect: MRSA (M)

## PF-656 (chain 1 RGMFVPFHDVDCVQ; chain 2 RGMFVPFHDVDCVQ; Peptide with targeting and/or antimicrobial activity)
[1]
  Target(s) (microorganisms bound by the targeting peptide): Mycobacteria spp
[3]
  Organism, effect (morphology, biofilm and growth disruption): MRSA (R)

## PF-661 (chain 1 PDEDIRRRAILPPAGPCRPMSPE; chain 2 PDEDIRRRAILPPAGPCRPMSPE; Peptide with targeting and/or antimicrobial activity)
[1]
  Target(s) (microorganisms bound by the targeting peptide): Mycobacteria spp
[3]
  Organism, effect (morphology, biofilm and growth disruption): MRSA (R)

## PF-680 (chain 1 ADPHPTTGI; chain 2 ADPHPTTGI; Peptide with targeting and/or antimicrobial activity)
[1]
  Target(s) (microorganisms bound by the targeting peptide): Mycobacteria spp
[3]
  Organism, effect (morphology, biofilm and growth disruption): MRSA (R)

## PF-692 (chain 1 GVAREDPLEPDPLAPIIDDSR; chain 2 GVAREDPLEPDPLAPIIDDSR; Peptide with targeting and/or antimicrobial activity)
[1]
  Target(s) (microorganisms bound by the targeting peptide): Mycobacteria spp
[3]
  Organism, effect (morphology, biofilm and growth disruption): MRSA (R)

## PF-737: peptide having multiple activities (KSSGSSASASSTAGGSSSK; Peptide with targeting and/or antimicrobial activity)
[1]
  Target(s) (microorganisms bound by the targeting peptide): S. epidermidis; also recorded: S. pneumoniae
[4]
  Organism, effect (morphology, biofilm and growth disruption): S. pneumoniae (D)
[2]
  Activities: G B

## PF-744: peptide having multiple activities (LGVGTFVGKVLIKNQQKQKSKKKAQ; Peptide with targeting and/or antimicrobial activity)
[1]
  Target(s) (microorganisms bound by the targeting peptide): S. epidermidis and M. luteus and E. coli and MRSA and S. pneumoniae and E. faecalis and C. jeikeium
[4]
  Organism, effect (morphology, biofilm and growth disruption): S. pneumoniae (H)
[2]
  Activities: G B

## PF-756: peptide having multiple activities (DALLRLA; Peptide with targeting and/or antimicrobial activity)
[1]
  Target(s) (microorganisms bound by the targeting peptide): S. epidermidis and M. luteus and C. albicans and MRSA and C. jeikeium
[4]
  Organism, effect (morphology, biofilm and growth disruption): S. pneumoniae (A)
[2]
  Activities: G B

## PF-757: peptide having multiple activities (PQAISSVQQNA; Peptide with targeting and/or antimicrobial activity)
[1]
  Target(s) (microorganisms bound by the targeting peptide): M. luteus and C. albicans and MRSA
[4]
  Organism, effect (morphology, biofilm and growth disruption): S. pneumoniae (H)
[2]
  Activities: G B

## PF-762: peptide having multiple activities (PAPAPSAPAPAPEQPEQPA; Peptide with targeting and/or antimicrobial activity)
[1]
  Target(s) (microorganisms bound by the targeting peptide): M. luteus; also recorded: C. albicans
[4]
  Organism, effect (morphology, biofilm and growth disruption): S. pneumoniae (H)
[2]
  Activities: G B
